Tests used:
Assay type in all cases: in vivo
Plutella xylostella = Plutella xylostella (Diamond Back Moth); conditions: 120 h, application rate of 200 ppm, artificial diet, L2 larvae, 5 days after infestation, read-out: effect in at least one of the two categories (mortality or growth inhibition)
Experimental: (§1) 24-well microtiter plates with artificial diet were treated with aqueous test solutions prepared from 10,000 ppm DMSO stock solutions by pipetting. After drying, the plates were infested with L2 larvae (10 to 15 per well). The samples were assessed for mortality and growth inhibition in comparison to untreated samples 5 days after infestation.

Euschistus heros = Euschistus heros (Neotropical Brown Stink Bug); conditions: 120 h, application rate of 200 ppm, sprayed soybean leaves, N2 nymphs, 5 days after infestation, read-out: effect in at least one of the two categories (mortality or growth inhibition)
Experimental: Soybean leaves on agar in 24-well microtiter plates were sprayed with aqueous test solutions prepared from 10,000 ppm DMSO stock solutions. After drying the leaves were infested with N2 nymphs. The samples were assessed for mortality and growth inhibition in comparison to untreated samples 5 days after infestation.

Spodoptera littoralis [1] = test: Spodoptera littoralis (Egyptian Cotton Leaf Worm), sprayed cotton leaf discs; conditions: foliar, 72 h, application rate of 200 ppm, L1 larvae, 3 days after infestation
Experimental: Cotton leaf discs were placed onto agar in 24-well microtiter plates and sprayed with aqueous test solutions prepared from 10,000 ppm DMSO stock solutions. After drying the leaf discs were infested with five L1 larvae. The samples were assessed for mortality, anti-feeding effect, and growth inhibition in comparison to untreated samples 3 days after infestation. Control of Spodoptera littoralis by a test sample is given when at least one of the categories mortality, anti-feedant effect, and growth inhibition is higher than the untreated sample.

Diabrotica balteata = Diabrotica balteata (Corn Root Worm); conditions: 96 h, application rate of 200 ppm, sprayed maize sprouts, L2 larvae, 4 days after infestation, read-out: effect in at least one of the two categories (mortality or growth inhibition)
Experimental: as §1, with “Maize sprouts placed onto an agar layer in 24-well” for “24-well”, “plates” for “plates with artificial diet”, “spraying.” for “pipetting.”, “(6” for “(10”, “10” for “15”, “4” for “5”

Spodoptera littoralis [2] = test: Spodoptera littoralis (Egyptian Cotton Leaf Worm), uptake by lettuce roots from agar; conditions: 144 h, test rate of 12.5 ppm, mixed with agar, absorbed by lettuce roots, Spodoptera eggs, 6 days after infestation, read-out: effect in at least one of the three categories (mortality, anti-feeding, or growth inhibition)
Description: Test compounds were applied by pipette from 10,000 ppm DMSO stock solutions into 24-well plates and mixed with agar. Lettuce seeds were placed onto the agar and the multi well plate was closed by another plate which contained also agar. After 7 days the compound was absorbed by the roots and the lettuce grew into the lid plate. The lettuce leaves were then cut off into the lid plate. Spodoptera eggs were pipetted through a plastic stencil onto a humid gel blotting paper and the lid plate was closed with it. The samples were assessed for mortality, anti-feedant effect and growth inhibition in comparison to untreated samples 6 days after infestation.

Myzus persicae [3] = test: Myzus persicae (Green Peach Aphid): Feeding/Contact Activity; conditions: foliar, 144 h, application rate of 200 ppm, sprayed sunflower leaf discs, aphid population of mixed ages, 6 days after infestation
Experimental: Sunflower leaf discs were placed onto agar in a 24-well microtiter plate and sprayed with aqueous test solutions prepared from 10,000 ppm DMSO stock solutions. After drying, the leaf discs were infested with an aphid population of mixed ages. The samples were assessed for mortality 6 days after infestation.

Bemisia tabaci = Bemisia tabaci (Cotton White Fly): Feeding/Contact Activity; conditions: foliar, 144 h, application rate of 200 ppm, sprayed cotton leaf discs, adult white flies, 6 days after incubation
Experimental: Cotton leaf discs were placed on agar in 24-well microtiter plates and sprayed with aqueous test solutions prepared from 10,000 ppm DMSO stock solutions. After drying the leaf discs were infested with adult white flies. The samples were checked for mortality 6 days after incubation.

Myzus persicae [4] = test: Myzus persicae (Green Peach Aphid). Systemic Activity; conditions: 144 h, test rate of 24 ppm, roots of infested pea seedlings in test solution, 6 days
Experimental: Roots of pea seedlings infested with an aphid population of mixed ages were placed directly into aqueous test solutions prepared from 10,000 DMSO stock solutions. The samples were assessed for mortality 6 days after placing seedlings into test solutions.

CCn1c(C(F)(F)F)cc2nc(-c3ncc(N(C)N)cc3S(=O)(=O)CC)n(C)c2c1=O [Compound A56, 2-[5-[amino(methyl)amino]-3-ethylsulfonyl-2-pyridyl]-5-ethyl-3-methyl-6-(trifluoromethyl)imidazo[4,5-c]pyridin-4-one]
≥ 80%: percent effect (mortality or growth inhibition) at 200 ppm (Plutella xylostella) | percent effect (mortality or growth inhibition) at 200 ppm (Euschistus heros) | percent control (mortality, anti-feeding effect or growth inhibition) at 200 ppm (Spodoptera littoralis [1]) | effect mortality or growth inhibition at 200 ppm (Diabrotica balteata) | percent effect (mortality, anti-feeding or growth inhibition) at 12.5 ppm (Spodoptera littoralis [2]) | mortality at 200 ppm (Myzus persicae [3])

CCn1c(C(F)(F)F)cc2nc(-c3nc(N(C(=O)C4CC4)C(=O)C4CC4)c(Cl)cc3S(=O)(=O)CC)n(C)c2c1=O [Compound A40, N-[3-chloro-6-[5-ethyl-3-methyl-4-oxo-6-(trifluoromethyl)imidazo[4,5-c]pyridin-2-yl]-5-ethylsulfonyl-2-pyridyl]-N-(cyclopropanecarbonyl)cyclopropanecarboxamide]
≥ 80%: percent effect (mortality or growth inhibition) at 200 ppm (Plutella xylostella) | percent effect (mortality or growth inhibition) at 200 ppm (Euschistus heros) | percent control (mortality, anti-feeding effect or growth inhibition) at 200 ppm (Spodoptera littoralis [1]) | mortality at 200 ppm (Bemisia tabaci) | effect mortality or growth inhibition at 200 ppm (Diabrotica balteata) | percent effect (mortality, anti-feeding or growth inhibition) at 12.5 ppm (Spodoptera littoralis [2]) | mortality at 200 ppm (Myzus persicae [3])

CCn1c(C(F)(F)F)cc2nc(-c3nc(C(=O)NC4CC4)ccc3S(=O)(=O)CC)n(C)c2c1=O [Compound A20, N-cyclopropyl-6-[5-ethyl-3-methyl-4-oxo-6-(trifluoromethyl)imidazo[4,5-c]pyridin-2-yl]-5-ethylsulfonyl-pyridine-2-carboxamide]
≥ 80%: percent effect (mortality or growth inhibition) at 200 ppm (Plutella xylostella) | percent effect (mortality or growth inhibition) at 200 ppm (Euschistus heros) | percent control (mortality, anti-feeding effect or growth inhibition) at 200 ppm (Spodoptera littoralis [1]) | mortality at 24 ppm (Myzus persicae [4]) | mortality at 200 ppm (Bemisia tabaci) | percent effect (mortality, anti-feeding or growth inhibition) at 12.5 ppm (Spodoptera littoralis [2]) | mortality at 200 ppm (Myzus persicae [3])

CCn1c(C(F)(F)F)cc2nc(-c3ncc(N(C)C(=O)C4CC4)cc3S(=O)(=O)CC)n(C)c2c1=O [Compound A9, N-[6-[5-ethyl-3-methyl-4-oxo-6-(trifluoromethyl)imidazo[4,5-c]pyridin-2-yl]-5-ethylsulfonyl-3-pyridyl]-N-methyl-cyclopropanecarboxamide]
≥ 80%: percent effect (mortality or growth inhibition) at 200 ppm (Plutella xylostella) | percent effect (mortality or growth inhibition) at 200 ppm (Euschistus heros) | percent control (mortality, anti-feeding effect or growth inhibition) at 200 ppm (Spodoptera littoralis [1]) | mortality at 24 ppm (Myzus persicae [4]) | mortality at 200 ppm (Bemisia tabaci) | percent effect (mortality, anti-feeding or growth inhibition) at 12.5 ppm (Spodoptera littoralis [2]) | mortality at 200 ppm (Myzus persicae [3])

CCS(=O)(=O)c1ccc(NN)nc1-c1nc2cc(C(F)(F)F)n(C3CC3)c(=O)c2n1C [Compound A45, 5-cyclopropyl-2-(3-ethylsulfonyl-6-hydrazino-2-pyridyl)-3-methyl-6-(trifluoromethyl)imidazo[4,5-c]pyridin-4-one]
≥ 80%: percent effect (mortality or growth inhibition) at 200 ppm (Plutella xylostella) | percent control (mortality, anti-feeding effect or growth inhibition) at 200 ppm (Spodoptera littoralis [1]) | mortality at 24 ppm (Myzus persicae [4]) | effect mortality or growth inhibition at 200 ppm (Diabrotica balteata) | percent effect (mortality, anti-feeding or growth inhibition) at 12.5 ppm (Spodoptera littoralis [2]) | mortality at 200 ppm (Myzus persicae [3])

CCn1c(C(F)(F)F)cc2nc(-c3nc(Cl)c(N)cc3S(=O)(=O)CC)n(C)c2c1=O [Compound A53, 2-(5-amino-6-chloro-3-ethylsulfonyl-2-pyridyl)-5-ethyl-3-methyl-6-(trifluoromethyl)imidazo[4,5-c]pyridin-4-one]
≥ 80%: percent effect (mortality or growth inhibition) at 200 ppm (Plutella xylostella) | percent control (mortality, anti-feeding effect or growth inhibition) at 200 ppm (Spodoptera littoralis [1]) | effect mortality or growth inhibition at 200 ppm (Diabrotica balteata) | percent effect (mortality, anti-feeding or growth inhibition) at 12.5 ppm (Spodoptera littoralis [2]) | mortality at 200 ppm (Myzus persicae [3])

CCn1c(C(F)(F)F)cc2nc(-c3ncc(NC(=O)C4CC4)cc3S(=O)(=O)CC)n(C)c2c1=O [Compound A7, N-[6-[5-ethyl-3-methyl-4-oxo-6-(trifluoromethyl)imidazo[4,5-c]pyridin-2-yl]-5-ethylsulfonyl-3-pyridyl]cyclopropanecarboxamide]
≥ 80%: percent effect (mortality or growth inhibition) at 200 ppm (Plutella xylostella) | percent effect (mortality or growth inhibition) at 200 ppm (Euschistus heros) | percent control (mortality, anti-feeding effect or growth inhibition) at 200 ppm (Spodoptera littoralis [1]) | mortality at 24 ppm (Myzus persicae [4]) | mortality at 200 ppm (Bemisia tabaci) | mortality at 200 ppm (Myzus persicae [3])

CCS(=O)(=O)c1ccc(NC)nc1-c1nc2cc(C(F)(F)F)n(C3CC3)c(=O)c2n1C [Compound A51, 5-cyclopropyl-2-[3-ethylsulfonyl-6-(methylamino)-2-pyridyl]-3-methyl-6-(trifluoromethyl)imidazo[4,5-c]pyridin-4-one]
≥ 80%: percent effect (mortality or growth inhibition) at 200 ppm (Plutella xylostella) | percent effect (mortality or growth inhibition) at 200 ppm (Euschistus heros) | percent control (mortality, anti-feeding effect or growth inhibition) at 200 ppm (Spodoptera littoralis [1]) | mortality at 24 ppm (Myzus persicae [4]) | mortality at 200 ppm (Bemisia tabaci) | effect mortality or growth inhibition at 200 ppm (Diabrotica balteata) | percent effect (mortality, anti-feeding or growth inhibition) at 12.5 ppm (Spodoptera littoralis [2]) | mortality at 200 ppm (Myzus persicae [3])

CCn1c(C(F)(F)F)cc2nc(-c3nc(NC(=O)C4CC4)c(Cl)cc3S(=O)(=O)CC)n(C)c2c1=O [Compound A41, N-[3-chloro-6-[5-ethyl-3-methyl-4-oxo-6-(trifluoromethyl)imidazo[4,5-c]pyridin-2-yl]-5-ethylsulfonyl-2-pyridyl]cyclopropanecarboxamide]
≥ 80%: percent effect (mortality or growth inhibition) at 200 ppm (Plutella xylostella) | percent effect (mortality or growth inhibition) at 200 ppm (Euschistus heros) | percent control (mortality, anti-feeding effect or growth inhibition) at 200 ppm (Spodoptera littoralis [1]) | effect mortality or growth inhibition at 200 ppm (Diabrotica balteata) | percent effect (mortality, anti-feeding or growth inhibition) at 12.5 ppm (Spodoptera littoralis [2]) | mortality at 200 ppm (Myzus persicae [3])

CCn1c(C(F)(F)F)cc2nc(-c3nc(NC4CC4)c(Cl)cc3S(=O)(=O)CC)n(C)c2c1=O [Compound A31, 2-[5-chloro-6-(cyclopropylamino)-3-ethylsulfonyl-2-pyridyl]-5-ethyl-3-methyl-6-(trifluoromethyl)imidazo[4,5-c]pyridin-4-one]
≥ 80%: percent effect (mortality or growth inhibition) at 200 ppm (Plutella xylostella) | percent effect (mortality or growth inhibition) at 200 ppm (Euschistus heros) | percent control (mortality, anti-feeding effect or growth inhibition) at 200 ppm (Spodoptera littoralis [1]) | mortality at 200 ppm (Bemisia tabaci) | effect mortality or growth inhibition at 200 ppm (Diabrotica balteata) | percent effect (mortality, anti-feeding or growth inhibition) at 12.5 ppm (Spodoptera littoralis [2])

CCn1c(C(F)(F)F)cc2nc(-c3ncc(N/C=N/OC)cc3S(=O)(=O)CC)n(C)c2c1=O [Compound A26, N-[6-[5-ethyl-3-methyl-4-oxo-6-(trifluoromethyl)imidazo[4,5-c]pyridin-2-yl]-5-ethylsulfonyl-3-pyridyl]-N′-methoxy-formamidine]
≥ 80%: percent effect (mortality or growth inhibition) at 200 ppm (Plutella xylostella) | percent effect (mortality or growth inhibition) at 200 ppm (Euschistus heros) | percent control (mortality, anti-feeding effect or growth inhibition) at 200 ppm (Spodoptera littoralis [1]) | effect mortality or growth inhibition at 200 ppm (Diabrotica balteata) | percent effect (mortality, anti-feeding or growth inhibition) at 12.5 ppm (Spodoptera littoralis [2])

CCS(=O)(=O)c1ccc(NO)nc1-c1nc2cc(C(F)(F)F)n(C3CC3)c(=O)c2n1C [Compound A47, 5-cyclopropyl-2-[3-ethylsulfonyl-6-(hydroxyamino)-2-pyridyl]-3-methyl-6-(trifluoromethyl)imidazo[4,5-c]pyridin-4-one]
≥ 80%: percent effect (mortality or growth inhibition) at 200 ppm (Plutella xylostella) | percent effect (mortality or growth inhibition) at 200 ppm (Euschistus heros) | percent control (mortality, anti-feeding effect or growth inhibition) at 200 ppm (Spodoptera littoralis [1]) | mortality at 24 ppm (Myzus persicae [4]) | mortality at 200 ppm (Bemisia tabaci) | effect mortality or growth inhibition at 200 ppm (Diabrotica balteata) | mortality at 200 ppm (Myzus persicae [3])
